Reference: patent US9820981B2, “Treatment of retinopathy of prematurity (ROP)” (The Cleveland Clinic Foundation, priority 2013, dated 2017)

Assays:
[1] = test system: oxygen-induced retinopathy (OIR); assay: Oxygen-induced retinopathy (OIR) mouse model, retinal flatmounts; assay type: in vivo; details: for reduction of capillary dropout in retinal flatmounts (percent avascular area of total retinal area): P17, each at optimal dose (10 μg/g FG-4592, 200 μg/g DMOG) i.p. at P6, P8, P10
Procedure: The PBS-treated pup has an ischemic, posterior retina compared to the FG-4592-treated pup. Pups were treated with intraperitoneal injection of 10 μg/g body weight FG-4592 at P6, P8, and P10 while in 75% hyperoxia. At P12, pups were removed to room air with their nursing mothers and sacrificed at P17. Eyes were removed and fixed for 15 minutes in fresh 4% paraformaldehyde (PFA) before isolating whole retina, permeabilizing and lectin staining, then flat mounting for fluorescence microscopy.
An automated computer program (ImagePro version 7.0) measures capillary dropout and neovascular tufting seen in 3B.
The mouse model of ROP used in this study is based on a well-established protocol by Smith et al. (L. E. Smith, E. Wesolowski, A. McLellan, S. K. Kostyk, R. D'Amato, R. Sullivan, and P. A. D'Amore. Oxygen-induced retinopathy in the mouse. Investigative ophthalmology & visual science. 35:101-111 (1994)) that involves exposing pups and their nursing mothers to 5 days of hyperoxia (75% oxygen) during P7 through P12 in the wild type C57BL6 (WT) pups. A Plexiglas incubator with an oxygen sensor and feedback system ProOx (Biospherix, Lacona, N.Y.) was used to ensure continuous hyperoxia. Animals were injected intraperitoneally with FG-4592 (10 μg/g), DMOG (200 μg/g) or control PBS in the equivalent volume at P6, P8, and P10. […] Flatmount preparation and lectin (GS-IB4-Alexa568, Life Technologies, Grand Island, N.Y.) staining was performed essentially as described elsewhere (K. M. Connor, N. M. Krah, R. J. Dennison, C. M. Aderman, J. Chen, K. I. Guerin, P. Sapieha, A. Stahl, K. L. Willett, and L. E. Smith. Quantification of oxygen-induced retinopathy in the mouse: a model of vessel loss, vessel regrowth and pathological angiogenesis. Nat Protoc. 4:1565-1573 (2009); A. Stahl, K. M. Connor, P. Sapieha, K. L. Willett, N. M. Krah, R. J. Dennison, J. Chen, K. I. Guerin, and L. E. Smith. Computer-aided quantification of retinal neovascularization. Angiogenesis. 12:297-301 (2009)). Retinas were dissected using four radial cuts, and flatmounted onto glass slides with Vectashield (Vector Labs, Burlingame, Calif.). All animal procedures were performed in accordance with the Cleveland Clinic Institutional Animal Care and Use Committee.
For quantitative analysis of avascular area, vascular tortuosity, and tufting, retinal images were batch processed using a customized macro and algorithms generated in Image-Pro Plus 7.0 (Media Cybernetics, Silver Spring, Md.) as previously described (J. E. Sears, G. Hoppe, Q. Ebrahem, and B. Anand-Apte. Prolyl hydroxylase inhibition during hyperoxia prevents oxygen-induced retinopathy. Proceedings of the National Academy of Sciences of the United States of America. 105:19898-19903 (2008)).
FG-4592 was solubilized as a stock solution of […] in DMSO, which was then diluted 50 times in PBS to a concentration of 1 μg/microliter to facilitate a final dose of 10 μg/g body weight of each mouse pup. Three injections were administered during the hyperoxic phase of oxygen-induced retinopathy (OIR) at 48-hour intervals.

[2] = test system: VEGF; assay: Serum VEGF ELISA; assay type: in vivo; details: P8 mouse pups
Procedure: (§1) Wild-type (WT) and HIF-1α knock-out (KO) P8 mouse pups were injected with 10 μg/g FG-4592 and, following indicated periods of time, the pups were anesthetized by ketamine/xylazine, blood was drawn using heparinized 27-gauge needle and syringe. Serum was diluted 1:10 (EPO), 1:5 (VEGF) or 1:100 (ANGPTL-3) with sample diluent provided by the manufacturer (R&D Systems, Minneapolis, Minn.). Spectrophotometric measurements of EPO, VEGF, and ANGPTL-3 quantities were obtained according to the manufacturer's instructions.

[3] = test system: Hepatic EPO, VEGFA and ANGPTL3 mRNA; assay: Reverse transcription and quantitative PCR of hepatic mRNA; assay type: in vivo, mouse; details: data not shown
Procedure: Tissue from liver, kidney, brain and retina were placed into 1 mL of RNAlater reagent (Qiagen, Germantown, Md.) and stored at −80° C. Total RNA was extracted using RNeasy kit (Qiagen) and measured using NanoDrop and standard spectrophotometric parameters. One μg of total RNA from each sample was retrotranscripted to cDNA using QuantiTect Reverse Transcription Kit (Qiagen). One μl of cDNA samples was used as template for amplification reactions carried out with the QuantiTect SYBR Green PCR kit (Qiagen) following the manufacturer's instructions. PCR amplifications were performed in a 7900HT Fast Real-Time PCR system (Applied Biosystems, Foster City, Calif.) and quantitative PCR data analysis was performed with RQ Managed software (Applied Biosystems).

[4] = test system: serum erythropoietin (Epo), a HIF-regulated gene product; assay: Immunoblot of serum erythropoietin (Epo) response after single intraperitoneal injection; assay type: in vivo; details: P8 mouse pups, serum 6 hours after a single intraperitoneal injection
[5] = test system: angiopoietin-like protein 3 (ANGPTL-3); assay: Serum ANGPTL-3 ELISA; assay type: in vivo; details: P8 mouse pups
Procedure: as §1

[6] = test system: HIF-1α; assay: Western blot of HIF-1α protein in organ lysates; assay type: in vivo; details: mouse pups, versus PBS
Procedure: Mice were sacrificed by ketamine/xylazine overdose, organs collected and placed in RIPA buffer (200 μL per 50 mg of tissue, pH 7.0) containing protease inhibitors Complete (Roche, Indianapolis, Ind.), disrupted using a tight fitting microtube pestle, and centrifuged to remove particulate matter. A Pierce BCA protein assay (Thermo Scientific, Rockford, Ill.) was used to measure protein concentrations. Lysates were subjected to 4-20% SDS-PAGE and electro-transferred to PVDF membranes for immunoblotting. Membranes were blocked with 5% nonfat dried milk in Tris-buffered saline and 0.1% Tween-20, then probed with anti-HIF-1α, antibody (Cayman Chemical, Ann Arbor, Mich.) overnight. After washing and secondary antibody hybridization, membranes were exposed by chemiluminescence (Western Lighting, PerkinElmer, Waltham, Mass.).
FIG. 5A is images of Western blots detecting HIF-1α protein in organ lysates derived from pups treated with PBS or FG-4592, and FIG. 5B is a graph of integrated optical density of the immunoblots shown in FIG. 5A.

[7] = test system: EPO; assay: Serum EPO ELISA; assay type: in vivo; details: P8 mouse pups
Procedure: as §1

[8] = test system: HIF prolyl hydroxylase (PHD); assay: In vivo localization of PHD inhibition in luc-ODD mouse (luminescence imaging, luciferase activity in organ lysates); details: for localization of luminescence, whole animal imaging: luc-ODD mouse
Procedure: Gt(ROSA)26Sor^tml(Luc)Kael (luc-ODD) mice were obtained from the Jackson Laboratory (Bar Harbor, Me.). Pups were given i.p. injections of 10 μg/g FG-4592 at indicated periods of time prior to live imaging. Mice were injected with mixture of 100 mg/kg ketamine, 10 mg/kg xylazine and 50 mg/kg luciferin and placed in a light-tight chamber connected to a supercooled, charge-coupled camera. Photons were collected for 15 seconds using IVI 100 Imaging System (PerkinElmer, Waltham, Mass.).
The luc-ODD mouse has a transgene comprised of luciferase fused to the ODD and, therefore, serves as a reporter gene in vivo of where hydroxylation of the ODD is inhibited, observed as luminescence in tissue lysates and whole animal imaging.
Quantitation of the effect shown in FIG. 4A supports the specificity of this effect in tissue lysates.

[9] = murine OIR model, 10 eyes each group

SMILES | reduction of capillary dropout in retinal flatmounts (percent avascular area of total retinal area) ([1]; versus PBS) [fold] | serum levels of VEGF ([2]; 10 μg/g FG-4592 i.p.) | time of peak VEGF levels after treatment ([2]; time-course study) [h] | Hepatic EPO, VEGFA and ANGPTL3 mRNA levels and kinetics [3] | potency relative to DMOG, quantification of serum Epo immunoblot [4] | elevation of ANGPTL-3 in serum ([5]; 10 μg/g FG-4592 i.p.) [fold] | time course of ANGPTL-3 induction ([5]; time-course study) | preservation of retinal vessels in retinal flatmounts ([1]; 10 μg/g i.p. at P6, P8, P10 in 75% hyperoxia, sacrificed P17, versus PBS) | benefit in direct comparison with DMOG ([1]; OIR model, 10 μg/g FG-4592 versus 200 μg/g DMOG) | ischemic, hypoxic retina (isolectin and Hypoxyprobe staining) ([1]; P17, versus sham PBS injection) | rate of decrease of central avascular region (retinovascular repair) ([1]; flatmounts at P12, P15, P17, treated versus PBS) | inhibition of capillary drop-out compared with DMOG [1, 9] | inhibition of neovascularization subsequent to capillary drop-out compared with DMOG [1, 9] | organ specific stabilization of HIF-1α protein (integrated optical density) [6] | circulating (serum) levels of EPO ([7]; 10 μg/g FG-4592 i.p.) | time of peak EPO production after treatment ([7]; time-course study) [h] | organ specificity, luciferase activity (RLU/mg tissue protein) in organ lysates ([8]; luc-ODD mice, s.c. or i.p. injection, versus PBS) | localization of luminescence, whole animal imaging ([8]; i.p. injection) | localization of luminescence, whole animal imaging ([8]; s.c. injection) | duration of HIF PHD inhibition ([8]; single intraperitoneal injection, time course in kidney and lung)
COC(=O)CNC(=O)C(=O)OC [DMOG, dimethyl oxaloylglycine] | 3 |  |  |  |  |  |  |  |  |  |  |  |  |  |  |  |  |  |  | 
Cc1nc(C(=O)NCC(=O)O)c(O)c2ccc(Oc3ccccc3)cc12 [FG-4592] | 3 | moderate but statistically significant increase | 6 | mirrored their corresponding serum protein concentrations | approximately fifteen times more potent than DMOG | 6 | sustained induction, even 24 hours after FG-4592 treatment | preservation of retinal vessels | at least the same benefit as DMOG, with a trend to superiority of FG-4592 | decrease in ischemic, hypoxic retina at P17 | identical rates of decrease of this region in treated and untreated animals | inhibits capillary drop-out better than DMOG | inhibits neovascularization subsequent to capillary drop-out better than DMOG | maximal increase in HIF-1α in liver and kidney lysates | marked increase | 3 | specificity of FG-4592 for liver and kidney | liver- and kidney-specific luminescence | liver- and kidney-specific luminescence | at least 24 hours
